Activity data for 13 molecules are collected here from ChEMBL document CHEMBL3632533, “O-Benzoyl pyridine aldoxime and amidoxime derivatives: novel efficient DNA photo-cleavage agents” (Medchemcomm, 2015).

SMILES strings stand for the structures. Activity calls are given as the source filed them. The rule behind the calls is not given here.

In assay [1] the test system is Enterobacteria phage lambda. The experiment in a line: Induction of Lambda phage supercoiled circular pBluescript KS II DNA cleavage incubated for 30 mins by agarose gel electrophoresis in absence of UV light irradiation.
Assay [2] relates to Enterobacteria phage lambda. The experiment in a line: Induction of Lambda phage supercoiled circular pBluescript KS II DNA cleavage preincubated for 30 mins followed by UV light irradiation under aerobic condition measured after 15 mins by agarose gel electrophoresis.
Assay [3] concerns Enterobacteria phage lambda. The experiment in a line: Induction of Lambda phage supercoiled circular pBluescript KS II DNA cleavage assessed as single-stranded nick formation at 1 uM preincubated for 30 mins followed by UV light irradiation under aerobic condition measured after 15 mins by agarose gel electrophoresis.
Assay [4] has as its system Enterobacteria phage lambda. The experiment in a line: Induction of Lambda phage supercoiled circular pBluescript KS II DNA cleavage assessed as double-stranded nick formation at 100 uM preincubated for 30 mins followed by UV light irradiation under aerobic condition measured after 15 mins by agarose gel electrophoresis.
In assay [5] the test system is Enterobacteria phage lambda. The experiment in a line: Induction of Lambda phage supercoiled circular pBluescript KS II DNA cleavage assessed as single-stranded nick formation at 100 uM preincubated for 30 mins followed by UV light irradiation under aerobic condition measured after 15 mins by agarose gel electrophoresis.
The subject of assay [6] is Enterobacteria phage lambda. Put plainly: Induction of Lambda phage supercoiled circular pBluescript KS II DNA cleavage assessed as double-stranded nick formation at 1000 uM preincubated for 30 mins followed by UV light irradiation under aerobic condition measured after 15 mins by agarose gel electrophoresis.
For assay [7], the system named is Enterobacteria phage lambda. The experiment in a line: Induction of Lambda phage supercoiled circular pBluescript KS II DNA cleavage assessed as single-stranded nick formation at 1000 uM preincubated for 30 mins followed by UV light irradiation under aerobic condition measured after 15 mins by agarose gel electrophoresis.
In assay [8] the test system is Enterobacteria phage lambda. The experiment in a line: Induction of Lambda phage supercoiled circular pBluescript KS II DNA cleavage assessed as single-stranded nick formation at 500 uM preincubated for 30 mins followed by UV light irradiation under aerobic condition measured after 15 mins by agarose gel electrophoresis.
The test system of assay [9] is Enterobacteria phage lambda. Put plainly: Induction of Lambda phage supercoiled circular pBluescript KS II DNA cleavage assessed as single-stranded nick formation at 10 uM preincubated for 30 mins followed by UV light irradiation under aerobic condition measured after 15 mins by agarose gel electrophoresis.
In assay [10] the test system is Enterobacteria phage lambda. The experiment in a line: Induction of Lambda phage supercoiled circular pBluescript KS II DNA cleavage assessed as double-stranded nick formation at 1 uM preincubated for 30 mins followed by UV light irradiation under aerobic condition measured after 15 mins by agarose gel electrophoresis.
The subject of assay [11] is Enterobacteria phage lambda. Put plainly: Induction of Lambda phage supercoiled circular pBluescript KS II DNA cleavage assessed as double-stranded nick formation at 10 uM preincubated for 30 mins followed by UV light irradiation under aerobic condition measured after 15 mins by agarose gel electrophoresis.
In assay [12] the test system is Enterobacteria phage lambda. Put plainly: Induction of Lambda phage supercoiled circular pBluescript KS II DNA cleavage assessed as single-stranded nick formation at 100 uM preincubated for 30 mins followed by UV light irradiation measured after 15 mins by agarose gel electrophoresis in presence of argon.
Assay [13] relates to Enterobacteria phage lambda. The experiment in a line: Induction of Lambda phage supercoiled circular pBluescript KS II DNA cleavage assessed as double-stranded nick formation at 500 uM preincubated for 30 mins followed by UV light irradiation under aerobic condition measured after 15 mins by agarose gel electrophoresis.
For assay [14], the system named is Enterobacteria phage lambda. The experiment in a line: Induction of Lambda phage supercoiled circular pBluescript KS II DNA cleavage assessed as double-stranded nick formation at 100 uM preincubated for 30 mins followed by UV light irradiation under aerobic condition measured after 15 mins by agarose gel electrophoresis in presence of 20% DMSO.
The test system of assay [15] is Enterobacteria phage lambda. The experiment in a line: Induction of Lambda phage supercoiled circular pBluescript KS II DNA cleavage assessed as single-stranded nick formation at 100 uM preincubated for 30 mins followed by UV light irradiation under aerobic condition measured after 15 mins by agarose gel electrophoresis in presence of D2O.
In assay [16] the test system is Enterobacteria phage lambda. The experiment in a line: Induction of Lambda phage supercoiled circular pBluescript KS II DNA cleavage assessed as single-stranded nick formation at 100 uM preincubated for 30 mins followed by UV light irradiation under aerobic condition measured after 15 mins by agarose gel electrophoresis in presence of NaN3.
Assay [17] relates to Enterobacteria phage lambda. Put plainly: Induction of Lambda phage supercoiled circular pBluescript KS II DNA cleavage assessed as double-stranded nick formation at 100 uM preincubated for 30 mins followed by UV light irradiation measured after 15 mins by agarose gel electrophoresis in presence of argon.
For assay [18], the system named is Enterobacteria phage lambda. The experiment in a line: Induction of Lambda phage supercoiled circular pBluescript KS II DNA cleavage assessed as single-stranded nick formation at 100 uM preincubated for 30 mins followed by UV light irradiation under aerobic condition measured after 15 mins by agarose gel electrophoresis in presence of 20% DMSO.
The test system of assay [19] is Enterobacteria phage lambda. Put plainly: Induction of Lambda phage supercoiled circular pBluescript KS II DNA cleavage assessed as double-stranded nick formation at 100 uM preincubated for 30 mins followed by UV light irradiation under aerobic condition measured after 15 mins by agarose gel electrophoresis in presence of D2O.

For the molecule `O/N=C/c1cccnc1`, the result in assay [1] and in assay [2] was inactive.
As to `O=C(O/N=C/c1ccccn1)c1ccc([N+](=O)[O-])cc1`, the Activity in [3] is 46%; in assay [4], 10%; in assay [5], 83%; in assay [6], 7%; in assay [7], 86%. Besides, in [1], the outcome was inactive.
For `COc1ccc(C(=O)O/N=C/c2cccnc2)cc1`, the figures for the Activity in [8], in assay [5] and in assay [7] were 29%, 0% and 35%, respectively. The result in assay [1] was inactive.
Regarding `NC(=NOC(=O)c1ccc([N+](=O)[O-])cc1)c1cccnc1`, the Activity in [8] worked out at 75%; in [3] it was 56%; in assay [10], 4%; in assay [4] it was 4%; in [5], 81%; in [12], 86%. Besides, the Activity was 2% in assay [13]; 5% in [14]; 28% in assay [15]; 16% in [16]; 36% in assay [6]; 6% in assay [17]. Moreover, the values for the Activity in assay [18] and in assay [7] were 83% and 64%, respectively. In addition, the outcome in assay [9] and in assay [11] was Active. The outcome in assay [1] was inactive.
Take `O=C(O/N=C/c1cccnc1)c1ccc([N+](=O)[O-])cc1`: the Activity came out at 81% in assay [8]; 59% in assay [3]; 2% in assay [4]; 84% in assay [5]; 8% in assay [19]; 85% in assay [12]. For the same molecule, the Activity stood at 2% in [13]; 20% in [14]; 85% in assay [15]; 23% in assay [16]; 13% in assay [6]; 9% in assay [17]. In addition, the Activity worked out at 75% in assay [18] and 84% in assay [7]. In addition, the result in assay [1] was inactive.
As for `CC(=O)O/N=C(\N)c1cccnc1`, the Activity in [8] was found to be 6%; in [5] it was 0%; in assay [7] it was 0%. Moreover, in assay [1], the outcome was inactive.
Consider `N/C(=N\OC(=O)c1ccc([N+](=O)[O-])cc1)c1ccncc1`, for which the Activity in assay [3] came out at 25%; in [4], 7%; in [5], 75%; in assay [6], 50%; in assay [7], 50%. In addition, the outcome in assay [9] and in assay [11] was Active. Moreover, the outcome in assay [1] was inactive.
As to `NC(=NOC(=O)c1ccc([N+](=O)[O-])cc1)c1ccccn1`, the Activity stood at 70% in assay [3]; 15% in assay [10]; 10% in [4]; 85% in assay [5]; 20% in assay [6]; 73% in assay [7]. In addition, the result in assay [9] and in assay [11] was Active. Besides, the outcome in [1] was inactive.
As to `N/C(=N\O)c1cccnc1`, the result in assay [1] and in assay [2] was inactive.
As for `N=C(NOC(=O)c1ccccc1)c1cccnc1`, the Activity in [8] was 25%; in assay [5], 5%; in assay [7], 25%. Besides, in assay [1], the outcome was inactive.
Take `O=C(O/N=C/c1cccnc1)c1ccccc1`: the Activity in assay [8] worked out at 38%; in assay [5] it was 39%; in assay [6] it was 1%; in assay [7], 72%. Besides, in assay [1], the result was inactive.
Regarding `O=C(O/N=C/c1ccncc1)c1ccc([N+](=O)[O-])cc1`, the Activity in assay [3] is 28%; in assay [4], 9%; in assay [5], 87%; in assay [6] it was 33%; in assay [7], 67%. Besides, the outcome in assay [1] was inactive.
On to `COc1ccc(C(=O)O/N=C(\N)c2cccnc2)cc1`, for which the results for the Activity in assay [8], in [5] and in assay [7] were 27%, 0% and 36%, respectively. Also, the outcome in assay [1] was inactive.
